Target: human 11β-HSD1 (Homo sapiens, UniProt P28845)
Assay: Inhibition of a microsomal preparation of 11β-HSD1, SPA (Biological Test Example 2)
Type: biochemical
Set-up: expressed in transfected cells; host or cells: CHO cells (microsomes)
Conditions: read-out: Biological Test Example 2 (IC50 class)
Protocol: All reactions are carried out at room temperature in 96 well clear flexible PET Microbeta plates (PerkinElmer). […] After a 10 minute pre-incubation, 50 μL of enzyme solution containing microsomes isolated from CHO cells overexpressing human 11β-HSD1 (10-20 μg/ml of total protein) is added, and the plates are then incubated for 90 minutes at room temperature. The reaction is stopped by adding 50 μl of the SPA beads suspension containing […] 18β-glycyrrhetinic acid, 5 mg/ml protein A coated YSi SPA beads (GE Healthcare) and 3.3 μg/ml of anti-cortisol antibody (East Coast Biologics) in Superblock buffer (Bio-Rad). The plates are then shaken for 120 minutes at room temperature, and the SPA signal corresponding to [^3H]cortisol is measured on a Microbeta plate reader.

Sequence of human 11β-HSD1 (P28845 whole entry): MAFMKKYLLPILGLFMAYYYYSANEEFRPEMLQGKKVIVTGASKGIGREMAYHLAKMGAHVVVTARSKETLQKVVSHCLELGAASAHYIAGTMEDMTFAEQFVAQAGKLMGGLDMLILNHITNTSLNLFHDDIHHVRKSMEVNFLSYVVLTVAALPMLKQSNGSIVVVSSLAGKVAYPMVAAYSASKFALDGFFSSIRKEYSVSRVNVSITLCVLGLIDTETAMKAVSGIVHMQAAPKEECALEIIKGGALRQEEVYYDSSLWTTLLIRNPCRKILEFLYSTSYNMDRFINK

Row | Molecule | IC50 [nM]
1 | C=CCC1OC2(CCN(C(=O)NC3C4CC5CC(C4)CC3C5)CC2)c2c(Cl)cccc21 (stereo not shown) [Example 102, 3-Allyl-7-chloro-N-(2-adamantyl)-3H-spiro[isobenzofuran-1,4′-piperidine]-1′-carboxamide] | < 50
2 | COC(=O)CC1CCC2(CC1)CCN(C(=O)NC1C3CC4CC(C3)CC1C4)CC2 (stereo not shown) [Example 81, Methyl 2-(3-((2-adamantyl)carbamoyl)-3-azaspiro[5.5]undecan-9-yl)acetate] | < 50
3 | O=C(OC1C2CC3CC(C2)CC1C3)N1CCC2(CC1)CNCc1ccccc12 (stereo not shown) [Example 38, 2-Adamantyl 2,3-dihydro-1H-spiro[isoquinoline-4,4′-piperidine]-1′-carboxylate] | < 50
4 | 3-(1′-(2-Adamantyloxycarbonyl)-1H-spiro[isoquinoline-4,4′-piperidine]-2(3H)-ylsulfonyl)propanoic acid [Example 109] | < 50
5 | 4-(1′-(2-Adamantyloxycarbonyl)-1H-spiro[isoquinoline-4,4′-piperidine]-2(3H)-yl)-4-oxobutanoic acid [Example 94] | < 50
6 | CC(C)(CC(=O)O)CC(=O)N1Cc2ccccc2C2(CCN(C(=O)NC3C4CC5CC(C4)CC3C5)CC2)C1 (stereo not shown) [Example 98, 5-(1′-(2-Adamantylcarbamoyl)-1H-spiro[isoquinoline-4,4′-piperidine]-2(3H)-yl)-3,3-dimethyl-5-oxopentanoic acid] | 50 to 1000
7 | O=C(NC1C2CC3CC(C2)CC1C3)N1CCC2(CC1)OCc1ccccc12 (stereo not shown) [Example 83, N-(2-Adamantyl)-3H-spiro[isobenzofuran-1,4′-piperidine]-1′-carboxamide] | < 50
8 | CN(C)CCCCNC(=O)CC1CC2(CCN(C(=O)NC3C4CC5CC(C4)CC3C5)CC2)c2c(Br)cccc21 (stereo not shown) [Example 118, 7-Bromo-N-(2-adamantyl)-3-(2-(4-(dimethylamino)butylamino)-2-oxoethyl)-2,3-dihydrospiro[indene-1,4-r-piperidine]-1′-carboxamide] | < 50
9 | COc1cc(CNC(=O)C23CC4CC(C2)C(OC(=O)N2CCC5(CC2)CC(CC(=O)O)c2ccccc25)C(C4)C3)cc(OC)c1 (stereo not shown) [Example 72, 2-(1′-((1-(3,5-Dimethoxybenzylcarbamoyl)-4-adamantyloxy)carbonyl)-2,3-dihydrospiro[indene-1,4′-piperidine]-3-yl)acetic acid] | 50 to 1000
10 | COc1ccc2c(c1)C1(CCN(C(=O)NC3C4CC5CC(C4)CC3C5)CC1)CC2CC(=O)O (racemic) [Example 59, (±)-2-(1′-((2-Adamantyl)carbamoyl)-6-methoxy-2,3-dihydrospiro[indene-1,4′-piperidine]-3-yl)acetic acid] | < 50
11 | O=C(O)/C=C/C(=O)N1Cc2ccccc2C2(CCN(C(=O)NC3C4CC5CC(C4)CC3C5)CC2)C1 (stereo not shown) [Example 91, (E)-4-(1′-(2-Adamantylcarbamoyl)-1H-spiro[isoquinoline-4,4′-piperidine]-2(3H)-yl)-4-oxobut-2-enoic acid] | < 50
12 | O=C(O)[C@@H]1C[C@H]1C(=O)N1Cc2ccccc2C2(CCN(C(=O)OC3C4CC5CC(C4)CC3C5)CC2)C1 (mixture of isomers) [Example 100, (1RS,2RS)-2-(1′-(2-Adamantyloxycarbonyl)-2,3-dihydro-1H-spiro[isoquinoline-4,4′-piperidine]-2-ylcarbonyl)cyclopropanecarboxylic acid] | < 50
13 | O=C(NC1C2CC3CC(C2)CC1C3)N1CCCC2(Cc3ccccc3C2O)C1 (stereo not shown) [27, Step 2 Product] | < 50
14 | O=C(O)C1CC1C(=O)N1Cc2ccccc2C2(CCN(C(=O)NC3C4CC5CC(C4)CC3C5)CC2)C1 [Example 99, (1S,2R)-2-(1′42-Adamantylcarbamoyl)-2,3-dihydro-1H-spiro[isoquinoline-4,4′-piperidine]-2-ylcarbonyl)cyclopropanecaxboxylic acid] | 50 to 1000

The remaining lines, values ahead:

Row | IC50 [nM] | Molecule
15 | < 50 | CN(C)CCCC(=O)N1Cc2ccccc2C2(CCN(C(=O)NC3C4CC5CC(C4)CC3C5)CC2)C1 (stereo not shown) [Example 113, N-(2-Adamantyl)-2-(4-(dimethylamino)butanoyl)-2,3-dihydro-1H-spiro[isoquinoline-4,4′-piperidine]-1′-carboxamide]
16 | < 50 | CN1CCN(CCNC(=O)CC2CC3(CCN(C(=O)NC4C5CC6CC(C5)CC4C6)CC3)c3c(Br)cccc32)CC1 (stereo not shown) [Example 121, 7-Bromo-N-(2-adamantyl)-3-(2-(2-(4-methylpiperazin-1-yl)ethylamino)-2-oxoethyl)-2,3-dihydrospiro[indene-1,4′-piperidine]-1′-carboxamide]
17 | < 50 | CN1CCN(C(=O)CC2CC3(CCN(C(=O)NC4C5CC6CC(C5)CC4C6)CC3)c3c(Br)cccc32)CC1 (stereo not shown) [Example 112, 7-Bromo-N-(2-adamantyl)-3-(2-(4-methylpiperazin-1-yl)-2-oxoethyl)-2,3-dihydrospiro[indene-1,4′-piperidine]-1′-carboxamide]
18 | < 50 | COC(=O)CCS(=O)(=O)N1Cc2ccccc2C2(CCN(C(=O)NC3C4CC5CC(C4)CC3C5)CC2)C1 (stereo not shown) [Example 106, Methyl 3-(1′-(2-adamantylcarbamoyl)-1-H-spiro[isoquinoline-4,4′-piperidine]-2(3H)-ylsulfonyl)propanoate]
19 | < 50 | COc1ccc2c(c1)CCNC21CCN(C(=O)NC2C3CC4CC(C3)CC2C4)CC1 (stereo not shown) [Example 77, N-(2-Adamantyl)-6-methoxy-3,4-dihydro-2H-spiro[isoquinoline-1,4′-piperidine]-1′-carboxamide]
20 | < 50 | O=C(O)CC1CC2(CCN(C(=O)NC3C4CC5CC(C4)CC3C5)CC2)c2ccc(Cl)cc21 (racemic) [Example 56, (±)-2-(1′-((2-Adamantyl)carbamoyl)-5-chloro-2,3-dihydrospiro[indene-1,4′-piperidine]-3-yl)acetic acid]
21 | < 50 | O=C(NC1C2CC3CC(C2)CC1C3)N1CCC2(CC1)CC(CCO)c1cccc(Br)c12 (racemic) [Example 122, (±)-7-Bromo-N-(2-adamantyl)-3-(2-hydroxyethyl)-2,3-dihydrospiro[indene-1,4′-piperidine]-1′-carboxamide]
22 | < 50 | O=C(NC1C2CC3CC(C2)CC1C3)N1CCC2(CC1)NCc1ccccc12 (stereo not shown) [Example 87, N-(2-Adamantyl)spiro[isoindoline-1,4′-piperidine]-1′-carboxamide]
23 | < 50 | N#CCC1CC2(CCN(C(=O)NC3C4CC5CC(C4)CC3C5)CC2)c2ccccc21 (racemic) [Example 45]
24 | < 50 | O=C(NC1C2CC3CC(C2)CC1C3)N1CCC2(CCCc3ccccc32)CC1 (stereo not shown) [Example 78, N-(2-Adamantyl)-3,4-dihydro-2H-spiro[naphthalene-1,4′-piperidine]-1′-carboxamide]
25 | < 50 | O=C(O)CC1CC2(CCN(C(=O)NC3C4CC5CC(C4)CC3C5)CC2)c2cc(F)ccc21 (racemic) [Example 60, (±)-2-(1′-((2-Adamantyl)carbamoyl)-6-fluoro-2,3-dihydrospiro[indene-1,4′-piperidine]-3-yl)acetic acid]
26 | < 50 | CCOC(=O)CC1CC2(CCN(C(=O)NC3C4CC5CC(C4)CC3C5)CC2)c2ccc(Cl)cc21 (racemic) [Example 55, (±)-Ethyl 2-(1′-((2-adamantyl)carbamoyl)-5-chloro-2,3-dihydrospiro[indene-1,4′-piperidine]-3-yl)acetate]
27 | < 50 | CCOC(=O)CC1CC2(CCN(C(=O)NC3C4CC5CC(C4)CC3C5)CC2)c2cccc(C)c21 (racemic) [Example 49, (±)-Ethyl 2(1′-((2-adamantyl)carbamoyl)-4-methyl-2,3-dihydrospiro[indene-1,4′-piperidine]-3-yl)acetate]
28 | < 50 | Cc1ccc2c(c1)C1(CCN(C(=O)OC3C4CC5CC(C4)CC3C5)CC1)CC2CC(=O)O (racemic) [Example 64, (±)-2-(6-Methyl-1′-((2-adamantyloxy)carbonyl)-2,3-dihydrospiro[indene-1,4′-piperidine]-3-yl)acetic acid]
29 | < 50 | CC(C(=O)O)C1CC2(CCN(C(=O)NC3C4CC5CC(C4)CC3C5)CC2)c2c(Br)cccc21 (stereo not shown) [Example 66, 2-(7-Bromo-1′-((2-adamantyl)carbamoyl)-2,3-dihydrospiro[indene-1,4′-piperidine]-3-yl)propanoic acid]
30 | < 50 | CC(C)(CO)C1CC2(CCN(C(=O)NC3C4CC5CC(C4)CC3C5)CC2)c2c(Br)cccc21 (racemic) [Example 123, (±)-7-Bromo-N-(2-adamantyl)-3-(1-hydroxy-2-methylpropan-2-yl)-2,3-dihydrospiro[indene-1,4′-piperidine]-1′-carboxamide]
31 | < 50 | Cc1ccc2c(c1)C(CC(=O)O)CC21CCN(C(=O)OC2C3CC4CC(C3)CC2C4)CC1 (racemic) [Example 65, (±)-2-(5-Methyl-1′-((2-adamantyloxy)carbonyl)-2,3-dihydrospiro[indene-1,4′-piperidine]-3-yl)acetic acid]
32 | < 50 | CC(C)(CC(=O)O)CC(=O)N1CC2(CCN(C(=O)NC3C4CC5CC(C4)CC3C5)CC2)c2ccccc21 (stereo not shown) [Example 96, 5-(1′-(2-Adamantylcarbamoyl)spiro[indoline-3,4′-piperidine]-1-yl)-3,3-dim ethyl-5-oxopentanoic acid]
33 | < 50 | CCOC(=O)CC1CC2(CCN(C(=O)NC3C4CC5CC(C4)CC3C5)CC2)c2cc(Cl)ccc21 (racemic) [Example 53, (±)-Ethyl 2-(1′-((2-adamantyl)carbamoyl)-6-chloro-2,3-dihydrospiro[indene-1,4′-piperidine]-3-yl)acetate]
34 | < 50 | CN(C)C(=O)CC1CC2(CCN(C(=O)OC3C4CC5CC(C4)CC3C5)CC2)c2ccccc21 (racemic) [Example 71, (±)-2-Adamantyl 3-(2-(dimethylamino)-2-oxoethyl)-2,3-dihydrospiro[indene-1,4′-piperidine]-1′-carboxylate]

Reference: patent publication US8927715B2, “Inhibitors of 11β-hydroxysteroid dehydrogenase type 1” (Vitae Pharmaceuticals, Inc., priority 2006, dated 2015)
